{"source": "patent US20090280193A1", "about": "“Enerceutical mediated activation of the Alternative Cellular Energy (ACE) pathway in the therapy of diseases” (priority 2008, published 2009)", "assay": "UV light induced fluorescence when mixed with freshly prepared neutral red", "assay_type": "physicochemical", "source_text": "This concept is fully consistent with the finding that various mineral and organic substances can be formulated that similarly show fluorescence when mixed with neutral red and illuminated with UV light. Not all cellular energy delivering products show this reaction but may yet presumably still be are able to absorb energies; and further that such absorption may be facilitated using various types of dyes or other chemicals. The advantage of a current formulation that has been devised over the last several years is that it clearly fluoresces with neutral red and that a distant action can be easily observed in a distantly held neutral red indication solution. This action includes otherwise unexplained movements of fine particles within the neutral red solution and more strikingly the induced crystallization that occurs in the neutral red solution. […] The UV inducible fluorescence, or other form of energy emission, within the plastic bags will typically evoke some discernable fluorescence within at least some skin areas in most of the treated and symptomatic patients, consistent with an overall systemic activation of the body's ACE pathway. […] The liquid-in-a-bag format also allows for the addition of other materials that can further enhance the activation and/or fluorescence of the formulations being studied. […]"}
{"smiles": "CCN(CC)CC(=O)Nc1c(C)cccc1C", "note": "[Lidocaine]", "values": [{"measurement": "fluorescence with neutral red", "result": "will not fluoresce"}]}
